Experimental data from US10040810B2, “Derivatives of bisacylphosphinic acid, their preparation and use as photoinitiators” (priority 2012, dated 2018).
Converted amounts (≈) assume the structure as drawn.

Assay: Solubility in water
Type: physicochemical
Description: 50 mg of the photoinitiator of example 1 is added to 1 ml of distilled water and the suspension stirred at room temperature for 60 minutes. Non-dissolved material is filtered off, dried in vacuo and weighed. The solubility is approximately 5 mg/ml.

solubility at 60 min (thermodynamic from solid, distilled water, room temperature, 60 minutes stirring): ~5000 µg/mL (≈ 14 mM) | solubility in water (in words) (water, preparation of formulation 4c): low solubility
Structure (SMILES): Cc1cc(C)c(C(=O)P(=O)(O)C(=O)c2c(C)cc(C)cc2C)c(C)c1 [Example 1, bis(2,4,6-trimethyl-benzoyl)-phosphinic acid]
